From patent publication EP4707280A1, “1,4-CINEOLE DERIVATIVE AND INTERMEDIATE THEREOF, HERBICIDE CONTAINING SAID DERIVATIVE AS ACTIVE INGREDIENT, METHOD FOR USING HERBICIDE, AND METHOD FOR PREPARING AGROCHEMICAL COMPOSITION” (HOKKO CHEMICAL INDUSTRY CO., LTD., priority 2023, dated 2024)

What was measured:
Type in all cases: in vivo
[1] = system: Echinochloa crus-galli var. formosensis; test: Test Example 2: herbicidal effect test by application during growth period of paddy rice; settings: 120 g per 10 ares, applied seven days after sowing, flooded pots, 14 days after application; for inhibition at 1200 g/ha: Echinochloa crus-galli, read-out: weed inhibition rate
Method: (§1) The present test was conducted in duplicate for each chemical concentration group, and the weed inhibition rate (%) was determined 14 days after chemical application using the following formula (Math. 1). [formula]
(§2) Wagner pots with an area of […] were filled with paddy soil, followed by addition of water and incorporation of chemical fertilizer (N:P:K = 16:16:16), after which puddling was performed. After that, seeds of Echinochloa crus-galli var. formosensis, broad-leaved weeds (Monochoria vaginalis), and Scirpus juncoides were sown at a depth of 0 cm to 1 cm, 30 seeds each. Immediately after sowing, the pots were flooded and a water depth of approximately 3 cm was maintained. Subsequent management was conducted in a glass greenhouse. Seven days after sowing, an emulsifiable concentrate prepared according to Formulation Example 5 using the compound shown below was diluted with water, and a specified amount of the diluted solution was applied by dropper. The amount of the active ingredient to be applied was equivalent to 120 g per 10 ares. The test was conducted in duplicate for each chemical concentration group, and the herbicidal effect was evaluated 14 days after chemical application using the same criteria as in Test Example 1.

[2] = system: Echinochloa crus-galli; test: Test Example 4: herbicidal effect test by stem and leaf treatment in upland field; settings: 120 g per 10 ares, sprayed seven days after sowing, upland soil, 14 days after application; for inhibition at 1200 g/ha: Echinochloa crus-galli, read-out: weed inhibition rate
[3] = system: Digitaria ciliaris; test: as above; settings: 120 g per 10 ares, sprayed seven days after sowing, upland soil, 14 days after application; for inhibition at 1200 g/ha: Digitaria ciliaris, read-out: weed inhibition rate
Method: as §1
(§3) Pots with an area of 36 cm^2 were filled with upland soil (alluvial loam), twenty seeds each of weeds of Digitaria ciliaris, Echinochloa crus-galli, and Amaranthus viridis were uniformly mixed with the top 1 cm layer of soil and the surface was lightly pressed down. Seven days after sowing, an emulsifiable concentrate prepared according to Formulation Example 5 using the compound shown below was diluted with water, and the diluted solution was sprayed onto the soil surface at a rate of 100 liters per 10 ares. The amount of the active ingredient to be applied was equivalent to 120 g per 10 ares. Fourteen days after chemical application, the herbicidal effect was evaluated according to the same criteria as in Test Example 1.

[4] = system: Echinochloa crus-galli var. formosensis; test: Test Example 1: herbicidal effect test by soil application in paddy rice; settings: 120 g active ingredient per 10 ares, applied immediately after sowing, flooded pots, 14 days after application; for pest or weed control at 1200 g/ha: Echinochloa crus-galli, soil, 336 h, read-out: weed inhibition rate
Method: as §2, with “([…] Monochoria” for “(Monochoria”, “Immediately thereafter,” for “Seven days after sowing,”, “ares.” for “ares. The test was conducted in duplicate for each chemical concentration group, and the herbicidal effect was evaluated 14 days after chemical application using the same criteria as in Test Example 1.”

[5] = system: Digitaria ciliaris; test: Test Example 3: herbicidal effect test by soil application in upland field; settings: 120 g per 10 ares, sprayed one day after sowing, 14 days after application; for inhibition at 1200 g/ha: Digitaria ciliaris, read-out: weed inhibition rate
Method: as §1
as §3, with “crus-galli, Chenopodium album,” for “crus-galli,”, “One day” for “Seven days”

[6] = system: Echinochloa crus-galli; test: as above; settings: 120 g per 10 ares, sprayed one day after sowing, 14 days after application; for inhibition at 1200 g/ha: Echinochloa crus-galli, read-out: weed inhibition rate
Method: as §1
as §3, with “crus-galli, Chenopodium album,” for “crus-galli,”, “One day” for “Seven days”

Cc1ccc(COC2CC3(C(C)C)OC2(C)CC3Br)cc1 (stereo not drawn) [1-1345, 5-bromo-1-methyl-2-[(4-methylphenyl)methoxy]-4-isopropyl-7-oxabicyclo[2.2.1]heptane]
≥ 80%: inhibition at 1200 g/ha [1] | inhibition at 1200 g/ha [2] | inhibition at 1200 g/ha [3] | pest or weed control at 1200 g/ha [4] | inhibition at 1200 g/ha [5] | inhibition at 1200 g/ha [6]

Cc1cccc(C)c1CO[C@H]1C[C@@]2(C(C)C)O[C@]1(C)C[C@H]2Br [1-1608, (1R,2S,4S,5R)-5-bromo-2-[(2,6-dimethylphenyl)methoxy]-1-methyl-4-isopropyl-7-oxabicyclo[2.2.1]heptane]
≥ 80%: inhibition at 1200 g/ha [1] | inhibition at 1200 g/ha [2] | inhibition at 1200 g/ha [3] | pest or weed control at 1200 g/ha [4] | inhibition at 1200 g/ha [5] | inhibition at 1200 g/ha [6]

CC(C)=CCO[C@H]1C[C@@]2(C(C)C)O[C@]1(C)C[C@H]2I [1-1073, (1R,2S,4S,5R)-5-iodo-1-methyl-2-(3-methylbut-2-enoxy)-4-isopropyl-7-oxabicyclo[2.2.1]heptane]
≥ 80%: inhibition at 1200 g/ha [1] | inhibition at 1200 g/ha [2] | inhibition at 1200 g/ha [3] | pest or weed control at 1200 g/ha [4] | inhibition at 1200 g/ha [5] | inhibition at 1200 g/ha [6]

Cc1cccc(COC2CC3(C(C)C)OC2(C)CC3Br)c1 (stereo not drawn) [1-1344, 5-bromo-1-methyl-2-[(3-methylphenyl)methoxy]-4-isopropyl-7-oxabicyclo[2.2.1]heptane]
≥ 80%: inhibition at 1200 g/ha [1] | inhibition at 1200 g/ha [2] | inhibition at 1200 g/ha [3] | pest or weed control at 1200 g/ha [4] | inhibition at 1200 g/ha [5] | inhibition at 1200 g/ha [6]

CC(C)[C@@]12C[C@H](OCc3ccccc3C#N)[C@@](C)(C[C@H]1I)O2 [1-1109, 2-[[(1R,2S,4S,5R)-5-iodo-1-methyl-4-isopropyl-7-oxabicyclo[2.2.1]heptan-2-yl]oxymethyl]benzonitrile]
≥ 80%: inhibition at 1200 g/ha [1] | inhibition at 1200 g/ha [2] | inhibition at 1200 g/ha [3] | pest or weed control at 1200 g/ha [4] | inhibition at 1200 g/ha [5] | inhibition at 1200 g/ha [6]

CC(C)[C@@]12C[C@H](OCc3c(F)cccc3F)[C@@](C)(C[C@H]1Br)O2 [1-1052, (1R,28,48,5R)-5-bromo-2-[(2,6-difluorophenyl)methoxy]-1-methyl-4-isopropyl-7-oxabicyclo[2.2.1]heptane]
≥ 80%: weed inhibition rate [1] | weed inhibition rate [2] | weed inhibition rate [3] | weed inhibition rate [4] | weed inhibition rate [5] | weed inhibition rate [6]

CC(C)=CCO[C@H]1C[C@@]2(C(C)C)O[C@]1(C)CC2Br (mixture of isomers) [1-1007, (1R,2S,4S,SR)-5-bromo-1-methyl-2-(3-methylbut-2-enoxy)-4-isopropyl-7-oxabicyclo[2.2.1]heptane]
≥ 80%: inhibition at 1200 g/ha [1] | inhibition at 1200 g/ha [2] | inhibition at 1200 g/ha [3] | pest or weed control at 1200 g/ha [4] | inhibition at 1200 g/ha [5] | inhibition at 1200 g/ha [6]

CC(C)C12CC(OCc3ccc(Cl)cc3Cl)C(C)(CC1Br)O2 (stereo not drawn) [1-1385, 5-bromo-2-[(2,4-dichlorophenyl)methoxy]-1-methyl-4-isopropyl-7-oxabicyclo[2.2.1]heptane]
≥ 80%: inhibition at 1200 g/ha [1] | inhibition at 1200 g/ha [2] | inhibition at 1200 g/ha [3] | pest or weed control at 1200 g/ha [4] | inhibition at 1200 g/ha [5] | inhibition at 1200 g/ha [6]
